Values of other authors as cited in US20220265635A1, “TREATMENT OF NEUROLOGICAL DISEASE” (Aclipse One Inc., priority 2018, published 2022).

Test system: dopamine receptors
Conditions: background description; cited from earlier work

Q: For `CN1CCc2cccc3c2[C@H]1Cc1ccc(O)c(O)c1-3` [(6aR)-6-methyl-5,6,6a,7-tetrahydro-4H-dibenzo[de,g]quinoline-10,11-diol, reference compound], which “activity on dopamine receptors (in words)” value is on record?
A: strong dopamine agonist
